Broadly, the IC50 is the concentration at which inhibition is half-maximal.

Assay [1] concerns the target T1, cloned recombinant human HDAC-1 enzyme (Homo sapiens, UniProt Q13547).
T1 construct: made in house; host or cells: Baculovirus insect cell expression system
As to the kind of experiment: HDAC-1 enzymatic inhibition, Assay 1 ([3H]-acetylated histone substrate). In kind it is biochemical. Conditions: Assay 1: [3H]-labeled acetylated histone substrate, recombinant hHDAC-1. The procedure:
Assay 1. HDAC inhibitors were screened against a cloned recombinant human HDAC-1 enzyme expressed and purified from a Baculovirus insect cell expression system. For deacetylase assays, 20,000 cpm of the [^3H]-metabolically labeled acetylated histone substrate (M. Yoshida et al., J. Biol. Chem. 265(28): 17174-17179 (1990)) was incubated with 30 μg of the cloned recombinant hHDAC-1 for 10 minutes at 37° C. The reaction was stopped by adding acetic acid (0.04 M, final concentration) and HCl (250 mM, final concentration). The mixture was extracted with ethyl acetate and the released [^3H]-acetic acid was quantified by scintillation counting. For inhibition studies, the enzyme was preincubated with compounds at 4° C. for 30 minutes prior to initiation of the enzymatic assay. IC50 values for HDAC enzyme inhibitors were determined by performing dose response curves with individual compounds and determining the concentration of inhibitor producing fifty percent of the maximal inhibition.
Assay 1 was used to measure HDAC activity of compounds 10c, 13e, 16d, 26b, 44, 47, 61a, 61b, 63, 134, 138, and 308. Assay 2 was used to measure HDAC activity of compounds 361, 366, 367, 368, 369, 370, 371, 372, 373, 374, 375, 376, 377, and 378. In Table 14, “a” indicates activity of ≦0.1 μM, “b” indicates activity of ≦1 μM, “c” indicates activity of ≦5 μM, and “d” indicates activity of >5 μm. For the H4-Ac T24 EC vs. MS-275 assay in Table 14, “u” indicates less than 1, “v” indicates 1, and “w” indicates greater than 1. For the H3 Ac t24 assay in Table 14, “x” indicates activity of ≦1 μM, “y” indicates activity of ≦10 μM, and “z” indicates activity of ≦20 μM.

For assay [2], the system named is HCT116 cells. Kind of assay: MTT assay. It counts as cell-based. The settings on record: Homo sapiens, HCT-116, 72 hours. The procedure: HCT116 cells (2000/well) were plated into 96-well tissue culture plates one day before compound treatment. Compounds at various concentrations were added to the cells. The cells were incubated for 72 hours at 37° C. in 5% CO2 incubator. MTT (3-[4,5-dimethylthiazol-2-yl]-2,5diphenyl tetrazolium bromide, Sigma) was added at a final concentration of 0.5 mg/ml and incubated with the cells for 4 hours before one volume of solubilization buffer (50% N,N-dimethylformamide, 20% SDS, pH 4.7) was added onto the cultured cells. After overnight incubation, solubilized dye was quantified by colorimetric reading at 570 nM using a reference at 630 nM using an MR700 plate reader (Dynatech Laboratories Inc.). OD values were converted to cell numbers according to a standard growth curve of the relevant cell line. The concentration which reduces cell numbers to 50% of that of solvent treated cells is determined as MTT IC50. In Table 14, “a” indicates activity of ≦0.1 μM, “b” indicates activity of ≦1 μM, and “c” indicates activity of ≦5 μM.
Background: Tetrazolium dyes change colour on reduction, which living cells bring about.

Assay [3] deals with Histone H4 acetylation in T24 human bladder cancer cells. As to the kind of experiment: Histone H4 acetylation in whole cells by immunoblots. In kind it is cell-based. The settings on record: ratio of EC50 of compound to EC50 of control MS-275, 16 h. The procedure:
T24 human bladder cancer cells growing in culture were incubated with HDAC inhibitors for 16 h. Histones were extracted from the cells after the culture period as described by M. Yoshida et al. (J. Biol. Chem. 265(28): 17174-17179 (1990)). […] of total histone protein was loaded onto SDS/PAGE and transferred to nitrocellulose membranes. Membranes were probed with polyclonal antibodies specific for acetylated histone H-4 (Upstate Biotech Inc.), followed by horse radish peroxidase conjugated secondary antibodies (Sigma). Enhanced Chemiluminescence (ECL) (Amersham) detection was performed using Kodak films (Eastman Kodak). Acetylated H-4 signal was quantified by densitometry. Data are presented as the ratio of the concentration effective for […] the acetylated H-4 signal by 50% (EC50) using the indicated compound of the invention to a control compound, MS-275. If the indicated ratio is 1, then the compound of the invention is as effective as the MS-275 control compound. […] Further information regarding the MS-275 compound can be found in Suzuki et al., J. Med. Chem. 1999, pp. 3001-3003.
Background: A western blot detects proteins with antibodies after separation by electrophoresis.

Assay [4] concerns SW48 colon cancer cells. Kind of assay: Human tumor xenograft in vivo, SW48. Conditions: Mus musculus, 40 mg/kg ip, mice, read-out: % Inhibition (relative to vehicle control) SW48. The method, then:
(§1) Eight to ten week old female BCD1 mice (Taconic Labs, Great Barrington, N.Y.) were injected subcutaneously in the flank area with 2×10^6 preconditioned HCT116 human colorectal carcinoma cells, SW48 colon cancer cells, and A549 lung cancer cells. Preconditioning of these cells was done by a minimum of three consecutive tumor transplantations in the same strain of nude mice. Subsequently, tumor fragments of approximately 30 mgs were excised and implanted subcutaneously in mice, in the left flank area, under Forene anesthesia (Abbott Labs, Geneva, Switzerland). When the tumors reached a mean volume of 100 mm^3, the mice were treated intraperitoneally by daily injection, with a solution of the histone deacetylase inhibitor in DMSO, at a starting dose of 10 mg/kg. The optimal dose of the HDAC inhibitor was established by dose response experiments according to standard protocols. Tumor volume was calculated every second day post infusion according to standard methods (e.g., Meyer et al., Int. J. Cancer 43: 851-856 (1989)).
For orientation: Xenograft models place foreign cells or tissue in a host animal.

In assay [5] the test system is A549 lung cancer cells. As to the kind of experiment: Human tumor xenograft in vivo, A549. The settings on record: mice. The method, then: as §1
Assay [6] relates to HCT116 human colorectal carcinoma cells. As to the kind of experiment: Human tumor xenograft in vivo, HCT116. The settings on record: Mus musculus, HCT-116; 30 mg/kg ip, mice; read-out: % Inhibition (relative to vehicle control) HCT116. The procedure:
as §1

T1 sequence (Q13547 whole entry): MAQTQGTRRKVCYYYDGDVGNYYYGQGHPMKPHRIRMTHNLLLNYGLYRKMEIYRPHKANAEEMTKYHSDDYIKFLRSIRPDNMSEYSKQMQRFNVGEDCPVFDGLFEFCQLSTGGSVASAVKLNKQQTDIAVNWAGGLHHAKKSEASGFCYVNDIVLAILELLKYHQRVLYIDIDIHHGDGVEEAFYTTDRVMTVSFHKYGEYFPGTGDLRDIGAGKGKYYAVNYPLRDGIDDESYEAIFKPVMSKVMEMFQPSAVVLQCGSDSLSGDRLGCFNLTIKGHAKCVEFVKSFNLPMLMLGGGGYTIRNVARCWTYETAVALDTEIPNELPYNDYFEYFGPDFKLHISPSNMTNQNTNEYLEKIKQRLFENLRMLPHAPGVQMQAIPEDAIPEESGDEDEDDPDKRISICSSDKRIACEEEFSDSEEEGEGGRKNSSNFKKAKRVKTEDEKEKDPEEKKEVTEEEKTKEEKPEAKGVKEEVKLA

For the compound `Nc1ccccc1NC(=O)c1ccc(CNc2nccc(-c3ccccn3)n2)cc1` [26b, N-(2-Amino-phenyl)-4-[(4-pyridin-2-yl-pyrimidin-2-ylamino)-methyl]-benzamide], the concentration for half-maximal inhibition (IC50) in assay [1] was 1 to 5 µM; in assay [2] it was not above 0.1 µM. For the same compound, in assay [3], the “H4-Ac T24 EC vs. MS-275” value is listed as “v (“v” indicates 1)”. Moreover, the inhibition in vivo at 40 mg/kg in assay [4] came to 75.1%. Moreover, the “% Inhibition (relative to vehicle control) A549” value in assay [5] (40 mg/kg ip) is 74.4%.
Turning to `CN(C)CCOc1ccc2nc(NCc3ccc(C(=O)Nc4ccccc4N)cc3)sc2c1` [compound 138, N-(2-Amino-phenyl)-4-{[6-(2-dimethylamino-ethoxy)-benzothiazol-2-ylamino]-methyl}-benzamide], the IC50 was 1 to 5 µM in assay [1] and not above 0.1 µM in assay [2]. In addition, in assay [3], the “H4-Ac T24 EC vs. MS-275” value was “u (“u” indicates less than 1)”. In assay [6], the inhibition in vivo at 30 mg/kg came out at 79.8%. Also, in assay [5] (30 mg/kg ip), the “% Inhibition (relative to vehicle control) A549” value is 83.7%.

Values taken from patent publication US8088805B2, “Inhibitors of histone deacetylase” (MethylGene Inc., priority 2004, dated 2012).
